According to patent US9034897B2, “Indanyl-substituted 4,5,6,7-tetrahydro-1H-pyrazolo[4,3-C]pyridines, their use as medicament, and pharmaceutical preparations comprising them” (SANOFI, priority 2011, dated 2015):

Columns and labels:
[1] = test system: left atrium of the anesthetized pig; assay: Refractory period and left-atrial vulnerability in the anesthetized pig; format: in vivo; settings: bolus 1 mg/kg, n = 2
Procedure: Investigation of the refractory period and the left-atrial vulnerability in the pig:
The compounds were tested for prolongation of the refractory period and antiarrhythmic activity on the atrium of the anesthetized pig as described in the literature (Knobloch et al. 2002. Naunyn-Schmiedberg's Arch. Pharmacol. 366; 482-487). Here the anti-arrhythmic action relates to the inhibition of the occurrence of episodes of arrhythmias which are induced by a prematurely placed extra-stimulus (S2) in the left atrium (=left-atrial vulnerability). The refractory period values are stated in percent of the basal values 15 minutes after injection. Mean values for the refractory periods are shown from three rates (150, 200 and 250/min). The inhibitory values for the inhibition of episodes of arrhythmias refer to 3 measurements (3 timepoints) before administration vs. 3 measurements during the first hour after administration of the compounds.
The action of 3-[5-Acetyl-1-((1R,2R)-6-chloro-4-fluoro-2-hydroxy-indan-1-yl)-4,5,6,7-tetrahydro-1H-pyrazolo[4,3-c]pyridin-3-yl]-benzonitrile (11j) on the refractory period of the left atrium and antiarrhythmic activity in the anesthetized pig after a bolus administration of 1 mg/kg is shown in table 12. From the results shown in table 12, it is seen that it was possible to prevent 82% of the induced arrhythmias.

[2] = molecular target: Human TASK-1 channels (Homo sapiens (Human), UniProt O14649); assay: Activity on the TASK-1 channel in Xenopus oocytes (two-microelectrode voltage clamp); format: cell-based; settings: for IC50: human TASK-1 expressed in Xenopus oocytes, currents during 500 ms pulses to 40 mV, room temperature; for inhibition at 5 µM: percentage inhibition of TASK-1 control current, Xenopus oocytes
Procedure: Determination of the activity on the TASK-1 channel in Xenopus oocytes:
Human TASK-1 channels were expressed in Xenopus oocytes. For this purpose, oocytes were isolated from Xenopus laevis and defolliculated. Subsequently, TASK-1-encoding RNA synthesized in vitro was injected into oocytes. After two days of TASK-1 protein expression, TASK-1 currents were measured by two-microelectrode voltage clamp. Data were acquired and analyzed using a TEC-10cx amplifier (NPI Electronic, Tamm, Germany) connected to an ITC-16 interface (Instrutech Corp., Long Island, USA) and Pulse software (HEKA Elektronik, Lambrecht, Germany). Oocytes were clamped to −90 mV and TASK-1 mediated currents were measured during 500 ms voltage pulses to 40 mV. Oocytes were continuously superfused with ND96 buffer containing: NaCl 96 mM, KCl2 mM, CaCl2 1.8 mM, MgCl2 1 mM, HEPES 5 mM (pH adjusted to 7.4 with NaOH). All experiments were performed at room temperature.
Test substances were consecutively added to the bath solution at rising concentrations. Compound effects were calculated as the percentage inhibition of
TASK-1 control current before compound application. IC50 values were obtained by fitting the data to the general dose-response equation.

Chain of Human TASK-1 channels (O14649 whole entry): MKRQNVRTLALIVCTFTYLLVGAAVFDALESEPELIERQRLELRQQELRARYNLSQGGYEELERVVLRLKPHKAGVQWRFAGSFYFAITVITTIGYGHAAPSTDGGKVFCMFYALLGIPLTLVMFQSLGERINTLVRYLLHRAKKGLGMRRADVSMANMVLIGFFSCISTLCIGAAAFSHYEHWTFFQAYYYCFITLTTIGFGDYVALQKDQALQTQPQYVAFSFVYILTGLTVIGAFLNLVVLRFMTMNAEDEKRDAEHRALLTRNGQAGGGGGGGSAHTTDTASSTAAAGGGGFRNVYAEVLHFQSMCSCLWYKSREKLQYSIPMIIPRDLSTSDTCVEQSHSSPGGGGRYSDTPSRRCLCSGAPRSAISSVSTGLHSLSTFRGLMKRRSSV

Row | IC50 [2] | inhibition at 5 µM [2] | Compound | % inhibition of the arrhythmias ([1]; S2-induced left-atrial arrhythmias, first hour after administration) | % increase in the refractory period ([1]; left atrium, 15 minutes after injection, mean of three rates (150, 200 and 250/min))
1 | 439 nM | – | CC(=O)N1CCc2c(c(-c3cccc(C#N)c3)nn2[C@@H]2c3cc(Cl)cc(F)c3C[C@H]2O)C1 [Example 11j, 3-[5-Acetyl-1-((1R,2R)-6-chloro-4-fluoro-2-hydroxy-indan-1-yl)-4,5,6,7-tetrahydro-1H-pyrazolo[4,3-c]pyridin-3-yl]-benzonitrile] | 82% | 20%
2 | – | 87% | CSc1cc(F)cc2c1C[C@@H](O)[C@@H]2n1nc(-c2cccc(C#N)c2)c2c1CCN(C(C)=O)C2 [Example 21c, 3-[5-Acetyl-1-((1R,2R)-6-fluoro-2-hydroxy-4-methylsulfanyl-indan-1-yl)-4,5,6,7-tetrahydro-1H-pyrazolo[4,3-c]pyridin-3-yl]-benzonitrile] | – | –
3 | 180 nM | – | CCNC(=O)N1CCc2c(c(-c3cccc(C#N)c3)nn2[C@@H]2c3cc(Cl)cc(Cl)c3C[C@H]2O)C1 [Example 22a, 3-(3-Cyano-phenyl)-1-((1R,2R)-4,6-dichloro-2-hydroxy-indan-1-yl)-1,4,6,7-tetrahydro-pyrazolo[4,3-c]pyridine-5-carboxylic acid ethylamide] | – | –
4 | – | 80% | CS(=O)(=O)N1CCc2c(c(-c3cccc(C#N)c3)nn2[C@@H]2c3cc(Cl)cc(Cl)c3C[C@H]2O)C1 [Example 23a, 3-[1-((1R,2R)-4,6-Dichloro-2-hydroxy-indan-1-yl)-5-methanesulfonyl-4,5,6,7-tetrahydro-1H-pyrazolo[4,3-c]pyridin-3-yl]-benzonitrile] | – | –
